The structures appear in SMILES notation.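 Each compound was tested at five concentrations against cells in 96-well plates for 48 hours. GI50 is the concentration that inhibits growth by half.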 Activity calls are given as the source filed them. Cut-off read from the data, not from the text of the source: active = GI50 up to about 1.1 µM and inactive = higher.

As usually defined, the GI50 is the concentration that inhibits growth by half.

Assay in all cases: DTP human tumour cell line panel, 48 h
The test system of assay [1] is RXF 393.
In assay [2] the test system is HCC 2998.
Assay [3] concerns CCRF-CEM.
The test system of assay [4] is EKVX.
Assay [5] deals with MOLT-4.
Assay [6] has as its system HCT-15.
Assay [7] concerns SW-620.
Assay [8] relates to NCI-H226.
The test system of assay [9] is SF-268.
The test system of assay [10] is A549.
Assay [11] relates to DMS-114.
Assay [12] has as its system NCI-H460.
In assay [13] the test system is M19-MEL.
Assay [14] deals with SN12C.
Assay [15] deals with SF-539.

`O=C(O)C1=Cc2cccc3cccc(c23)C1=O`: the GI50 in assay [1] was > 100 µM (inactive); in assay [2], > 100 µM (inactive); in assay [3] it was > 100 µM (inactive); in assay [4], > 100 µM (inactive); in assay [5], > 100 µM (inactive); in assay [6], over 100 µM. In addition, the GI50 in assay [7], in assay [8], in assay [9], in assay [10], in assay [11] and in [12] was > 100 µM (inactive) throughout. Further, the GI50 in assay [13] and in assay [14] was > 100 µM (inactive) throughout.

On to `CCCCCCCCCCCCCCCCOCC(CP(=O)([O-])OCC[n+]1ccccc1)OC` (stereo unspecified), for which the GI50 in assay [15] is 14.6 µM (inactive); in assay [2], 2.45 µM (inactive); in assay [3] it was 8.2 µM (inactive); in assay [4] it was 16.5 µM (inactive); in [5] it was 4.65 µM (inactive); in [7], 14.9 µM (inactive). Further, the GI50 in assay [8] was 4.02 µM (inactive); in [9] it was 7.1 µM (inactive); in assay [10], 10.6 µM (inactive); in assay [11], 11.4 µM (inactive); in [13], 12.4 µM (inactive); in assay [14] it was 11.4 µM (inactive).

With `O=C(c1cccs1)N(C(=S)N1CCN(c2ccccn2)CC1)c1ccccc1`, the GI50 in assay [1] was 35 µM (inactive); in [15], > 100 µM (inactive); in [3], > 100 µM (inactive); in [5], 48.4 µM (inactive); in [6], 61 µM; in assay [7] it was > 100 µM (inactive). Also, the GI50 in [8] is 29 µM (inactive); in assay [9] it was 87.3 µM (inactive); in [10], > 100 µM (inactive); in assay [11], 53 µM (inactive); in [12] it was > 100 µM (inactive); in assay [13], 81.1 µM (inactive). Further, in assay [14], the GI50 is > 100 µM (inactive).

With `C=CCCCN1CCCCC1=S`, the GI50 in [1], in assay [15], in [2], in [3], in [4] and in [5] was > 100 µM (inactive) each time. For the same molecule, the GI50 was over 100 µM in assay [6]; > 100 µM (inactive) in assay [7]; > 100 µM (inactive) in assay [8]; > 100 µM (inactive) in [10]; > 100 µM (inactive) in assay [11]; > 100 µM (inactive) in assay [12]. Further, the GI50 in assay [13] and in assay [14] was > 100 µM (inactive) in each case.

Turning to `C/C(CC(=O)Nc1ccc(C)cc1C)=N/N=C(N)N`, the GI50 in assay [1], in [15], in assay [2], in [3], in assay [4] and in [5] was > 100 µM (inactive) each time. The GI50 in assay [7], in [8], in assay [9], in assay [10], in assay [11] and in [12] was > 100 µM (inactive) in each case. Besides, in assay [13], the GI50 was > 100 µM (inactive).

As to `NCCCOc1ccc([N+](=O)[O-])cc1Cl`, the GI50 in assay [15] was > 100 µM (inactive); in assay [2] it was > 100 µM (inactive); in assay [3] it was 42.9 µM (inactive); in [5], > 100 µM (inactive); in [6] it was over 100 µM; in assay [7], > 100 µM (inactive). Also, the GI50 in [8], in assay [9], in [10], in assay [11], in assay [12] and in assay [13] was > 100 µM (inactive) each time.

In the case of `O=C1C=C(c2[nH]c3ccccc3c2C2=CC(=O)c3ccccc3C2=O)C(=O)c2ccccc21`, the GI50 was 39.7 µM (inactive) in assay [1]; 34.8 µM (inactive) in assay [15]; 16.8 µM (inactive) in assay [3]; 46.5 µM (inactive) in assay [4]; 15 µM (inactive) in [5]; 66.5 µM (inactive) in assay [7]. The GI50 in [8] is 61.7 µM (inactive); in [9] it was 34.4 µM (inactive); in assay [10], 65.3 µM (inactive); in assay [11], 17.3 µM (inactive); in [12] it was 35.6 µM (inactive); in assay [13], 17.3 µM (inactive).

For the molecule `C/C(=N\NS(=O)(=O)c1ccc(C)cc1)c1cc2ccccc2n1C`, the GI50 in assay [15] is > 100 µM (inactive); in assay [2] it was > 100 µM (inactive); in [3] it was > 100 µM (inactive); in assay [4], 74.3 µM (inactive); in [5], > 100 µM (inactive); in [6] it was over 100 µM. Besides, the GI50 in assay [7] was > 100 µM (inactive); in [9], 66.2 µM (inactive); in assay [10] it was > 100 µM (inactive); in [11], > 100 µM (inactive); in assay [12], > 100 µM (inactive); in assay [13], > 100 µM (inactive). The GI50 in [14] is 24.2 µM (inactive).

Turning to `O=C(Nc1cc(Cl)ccc1Cl)c1cc2cccc(Cl)c2oc1=O`, the GI50 was > 100 µM (inactive) in assay [1]; > 100 µM (inactive) in assay [15]; > 100 µM (inactive) in [3]; > 100 µM (inactive) in assay [4]; > 100 µM (inactive) in assay [5]; over 100 µM in assay [6]. The GI50 in assay [7], in [10], in [11], in assay [12], in assay [13] and in assay [14] was > 100 µM (inactive) throughout.

With `N#CC1CCCCCCCCCCC(=O)N(CCCl)C1=O` (stereo unspecified), the GI50 in assay [1], in [15], in assay [2], in assay [3], in assay [4] and in [5] was > 100 µM (inactive) each time. Further, the GI50 in assay [7], in [9], in assay [10], in assay [11], in assay [12] and in assay [13] was > 100 µM (inactive) each time. Also, in [14], the GI50 is > 100 µM (inactive).

`CC(=O)NC1=C(N)C(=O)c2ccccc2C1=O`: the GI50 in [1] is 46.9 µM (inactive); in assay [15], > 100 µM (inactive); in assay [2], > 100 µM (inactive); in [3], 47.1 µM (inactive); in assay [4], > 100 µM (inactive); in assay [5], > 100 µM (inactive). Besides, the GI50 in assay [6] is 47.6 µM; in assay [7] it was 14.9 µM (inactive); in [9] it was 37.8 µM (inactive); in assay [10], 44.4 µM (inactive); in assay [11], 14.8 µM (inactive); in assay [12], 20 µM (inactive). Further, the GI50 in assay [13] was 19.4 µM (inactive); in [14], 54.7 µM (inactive).

Consider `O=C1Nc2c(ccc(Cl)c2I)C1=O`, for which the GI50 in [1] was 17.4 µM (inactive); in assay [2], 19.6 µM (inactive); in assay [3], 20.2 µM (inactive); in assay [4], 16.4 µM (inactive); in [5], 18.7 µM (inactive); in assay [6], 18.9 µM. For the same molecule, the GI50 was 18.7 µM (inactive) in assay [7]; 22.5 µM (inactive) in assay [8]; 20 µM (inactive) in assay [9]; 34.9 µM (inactive) in [10]; 15.5 µM (inactive) in [11]; 17.9 µM (inactive) in assay [12]. Further, the results for the GI50 in assay [13] and in assay [14] were 11.4 µM (inactive) and 17.1 µM (inactive), respectively.

As for `Cn1cnc([N+](=O)[O-])c1Sc1nnc(C(F)(F)F)n1C`, the GI50 in assay [15] was 20.5 µM (inactive); in assay [2] it was 75.2 µM (inactive); in assay [3], 18.5 µM (inactive); in assay [4], > 100 µM (inactive); in assay [5], 15.2 µM (inactive); in [7], 18.6 µM (inactive). In addition, the GI50 in [8] is 24.9 µM (inactive); in assay [9] it was 83.6 µM (inactive); in assay [10], > 100 µM (inactive); in assay [11] it was 34.6 µM (inactive); in assay [12], > 100 µM (inactive); in assay [13], 18.9 µM (inactive). Further, in [14], the GI50 is 40.2 µM (inactive).

For `CCc1cccc(C)c1NC(C)=O`, the GI50 in assay [1], in assay [15], in [2], in assay [3], in assay [4] and in [5] was > 100 µM (inactive) in each case. The GI50 in [6] is over 100 µM; in assay [7] it was > 100 µM (inactive); in assay [8], > 100 µM (inactive); in assay [10], > 100 µM (inactive); in assay [11], > 100 µM (inactive); in assay [12] it was > 100 µM (inactive). The GI50 in assay [13] was > 100 µM (inactive).

Regarding `Cc1cc(Cl)ccc1NC(=O)C1C(=O)N(c2ccc(Cl)cc2C)C(=O)/C1=N\NC(N)=S` (stereo unspecified), the GI50 in assay [1] is 16 µM (inactive); in assay [15], 26.1 µM (inactive); in [2], 20.8 µM (inactive); in assay [3] it was 22.5 µM (inactive); in assay [4], 22.6 µM (inactive); in [5], 19.2 µM (inactive). For the same molecule, the GI50 in assay [6] is 17.1 µM; in [7], 29.7 µM (inactive); in assay [9] it was 35.6 µM (inactive); in [10] it was 35.4 µM (inactive); in [11], 31.6 µM (inactive); in assay [12], 31.6 µM (inactive). The GI50 is 37.4 µM (inactive) in assay [13] and 27.4 µM (inactive) in assay [14].
